Active and inactive are the calls of the source.
Experiments:
Format in all cases: functional, organism-based
Mus musculus [1] = assay: Anti-NASH activity in CCl4-induced nonalcoholic steatohepatitis C57BL mouse assessed as reduction in total cholesterol level at 60 mg/kg checked in presence of JBP485
Mus musculus [2] = assay: Anti-NASH activity in CCl4-induced nonalcoholic steatohepatitis C57BL mouse at 60 mg/kg checked in presence of 30 to 100 mg/kg JBP485 by Oil red-O staining based assay
Mus musculus [3] = assay: Anti-NASH activity in CCl4-induced nonalcoholic steatohepatitis C57BL mouse assessed as reduction in liver fibrosis at 60 mg/kg by sirius red staining based assay
Mus musculus [4] = assay: Anti-NASH activity in CCl4-induced nonalcoholic steatohepatitis C57BL mouse at 60 mg/kg by Oil red-O staining based assay
Mus musculus [5] = assay: Anti-NASH activity in CCl4-induced nonalcoholic steatohepatitis C57BL mouse assessed as reduction in steatosis at 60 mg/kg by H and E staining based assay
Mus musculus [6] = assay: Anti-NASH activity in CCl4-induced nonalcoholic steatohepatitis C57BL mouse assessed as reduction in steatosis at 60 mg/kg checked in presence of 30 to 100 mg/kg JBP485 by H and E staining based assay
Mus musculus [7] = assay: Anti-NASH activity in CCl4-induced nonalcoholic steatohepatitis C57BL mouse assessed as reduction in LDH level at 60 mg/kg checked in presence of JBP485
Mus musculus [8] = assay: Anti-NASH activity in CCl4-induced nonalcoholic steatohepatitis C57BL mouse assessed as reduction in malondialdehyde level at 60 mg/kg checked in presence of JBP485
Mus musculus [9] = assay: Anti-NASH activity in CCl4-induced nonalcoholic steatohepatitis C57BL mouse assessed as decrease in IL-17A expression at 60 mg/kg checked in presence of JBP485 by flow cytometry; conditions: time 14.0 day
Mus musculus [10] = assay: Anti-NASH activity in CCl4-induced nonalcoholic steatohepatitis C57BL mouse assessed as reduction in malondialdehyde level at 60 mg/kg
Mus musculus [11] = assay: Anti-NASH activity in CCl4-induced nonalcoholic steatohepatitis C57BL mouse assessed as reduction in liver ballooning degeneration at 60 mg/kg by H and E staining based assay
Mus musculus [12] = assay: Anti-NASH activity in CCl4-induced nonalcoholic steatohepatitis C57BL mouse assessed as reduction in liver index at 60 mg/kg checked in presence of 30 to 100 mg/kg JBP485
Mus musculus [13] = assay: Anti-NASH activity in CCl4-induced nonalcoholic steatohepatitis C57BL mouse assessed as decrease in IFN expression at 60 mg/kg checked in presence of JBP485 by flow cytometry; conditions: time 14.0 day
Mus musculus [14] = assay: Anti-NASH activity in CCl4-induced nonalcoholic steatohepatitis C57BL mouse assessed as reduction in total cholesterol level at 60 mg/kg
Mus musculus [15] = assay: Anti-NASH activity in CCl4-induced nonalcoholic steatohepatitis C57BL mouse assessed as reduction in liver index at 60 mg/kg
Mus musculus [16] = assay: Anti-NASH activity in CCl4-induced nonalcoholic steatohepatitis C57BL mouse assessed as reduction in liver fibrosis at 60 mg/kg checked in presence of 30 to 100 mg/kg JBP485 by sirius red staining based assay
Mus musculus [17] = assay: Anti-NASH activity in CCl4-induced nonalcoholic steatohepatitis C57BL mouse assessed as reduction in liver lobular inflammation at 60 mg/kg checked in presence of 30 to 100 mg/kg JBP485 by H and E staining based assay
Mus musculus [18] = assay: Anti-NASH activity in CCl4-induced nonalcoholic steatohepatitis C57BL mouse assessed as reduction in serum AST level at 60 mg/kg checked in presence of 30 to 100 mg/kg JBP485
Mus musculus [19] = assay: Anti-NASH activity in CCl4-induced nonalcoholic steatohepatitis C57BL mouse assessed as reduction in liver lobular inflammation at 60 mg/kg by H and E staining based assay
Mus musculus [20] = assay: Anti-NASH activity in CCl4-induced nonalcoholic steatohepatitis C57BL mouse assessed as reduction in liver ballooning degeneration at 60 mg/kg checked in presence of 30 to 100 mg/kg JBP485 by H and E staining based assay
Mus musculus [21] = assay: Anti-NASH activity in CCl4-induced nonalcoholic steatohepatitis C57BL mouse assessed as reduction in triglyceride level at 60 mg/kg checked in presence of JBP485
Mus musculus [22] = assay: Anti-NASH activity in CCl4-induced nonalcoholic steatohepatitis C57BL mouse assessed as reduction in triglyceride level at 60 mg/kg
Mus musculus [23] = assay: Anti-NASH activity in CCl4-induced nonalcoholic steatohepatitis C57BL mouse assessed as decrease in IL-2 expression at 60 mg/kg checked in presence of JBP485 by flow cytometry; conditions: time 14.0 day
Mus musculus [24] = assay: Anti-NASH activity in CCl4-induced nonalcoholic steatohepatitis C57BL mouse assessed as reduction in serum ALT level at 60 mg/kg checked in presence of 30 to 100 mg/kg JBP485
Mus musculus [25] = assay: Anti-NASH activity in CCl4-induced nonalcoholic steatohepatitis C57BL mouse assessed as reduction in liver lobular inflammation at 100 mg/kg by H and E staining based assay
Mus musculus [26] = assay: Anti-NASH activity in CCl4-induced nonalcoholic steatohepatitis C57BL mouse assessed as decrease in IL-2 expression at 100 mg/kg by flow cytometry; conditions: time 14.0 day
Mus musculus [27] = assay: Anti-NASH activity in CCl4-induced nonalcoholic steatohepatitis C57BL mouse assessed as reduction in total cholesterol level at 100 mg/kg administered for 14 days; conditions: time 14.0 day
Mus musculus [28] = assay: Anti-NASH activity in CCl4-induced nonalcoholic steatohepatitis C57BL mouse at 100 mg/kg by Oil red-O staining based assay
Mus musculus [29] = assay: Anti-NASH activity in CCl4-induced nonalcoholic steatohepatitis C57BL mouse assessed as decrease in IL-17A expression at 100 mg/kg by flow cytometry; conditions: time 14.0 day
Mus musculus [30] = assay: Anti-NASH activity in CCl4-induced nonalcoholic steatohepatitis C57BL mouse assessed as reduction in liver fibrosis at 100 mg/kg by sirius red staining based assay
Mus musculus [31] = assay: Anti-NASH activity in CCl4-induced nonalcoholic steatohepatitis C57BL mouse assessed as reduction in malondialdehyde level at 100 mg/kg administered for 14 days; conditions: time 14.0 day
Mus musculus [32] = assay: Anti-NASH activity in CCl4-induced nonalcoholic steatohepatitis C57BL mouse assessed as reduction in liver ballooning degeneration at 100 mg/kg by H and E staining based assay
Mus musculus [33] = assay: Anti-NASH activity in CCl4-induced nonalcoholic steatohepatitis C57BL mouse assessed as reduction in triglyceride level at 100 mg/kg administered for 14 days; conditions: time 14.0 day
Mus musculus [34] = assay: Anti-NASH activity in CCl4-induced nonalcoholic steatohepatitis C57BL mouse assessed as reduction in steatosis at 100 mg/kg by H and E staining based assay
Mus musculus [35] = assay: Anti-NASH activity in CCl4-induced nonalcoholic steatohepatitis C57BL mouse assessed as reduction in liver index at 100 mg/kg
Mus musculus [36] = assay: Anti-NASH activity in CCl4-induced nonalcoholic steatohepatitis C57BL mouse assessed as decrease in IFN expression at 100 mg/kg by flow cytometry; conditions: time 14.0 day
Mus musculus [37] = assay: Anti-NASH activity in CCl4-induced nonalcoholic steatohepatitis C57BL mouse assessed as reduction in serum AST level at 100 mg/kg
Mus musculus [38] = assay: Anti-NASH activity in CCl4-induced nonalcoholic steatohepatitis C57BL mouse assessed as reduction in LDH level at 100 mg/kg
Mus musculus [39] = assay: Anti-NASH activity in CCl4-induced nonalcoholic steatohepatitis C57BL mouse assessed as reduction in HYP content in liver at 100 mg/kg administered for 14 days; conditions: time 14.0 day
Mus musculus [40] = assay: Anti-NASH activity in CCl4-induced nonalcoholic steatohepatitis C57BL mouse assessed as reduction in serum ALT level at 100 mg/kg
Mus musculus [41] = assay: Anti-NASH activity in CCl4-induced nonalcoholic steatohepatitis C57BL mouse assessed as reduction in liver fibrosis at 30 to 100 mg/kg checked in presence of vitamin E by sirius red staining based assay; conditions: dose 30-100 mg/kg
Mus musculus [42] = assay: Anti-NASH activity in CCl4-induced nonalcoholic steatohepatitis C57BL mouse assessed as reduction in total cholesterol level at 30 mg/kg checked in presence of vitamin E
Mus musculus [43] = assay: Anti-NASH activity in CCl4-induced nonalcoholic steatohepatitis C57BL mouse assessed as decrease in IFN expression at 100 mg/kg checked in presence of vitamin E by flow cytometry; conditions: time 14.0 day
Mus musculus [44] = assay: Anti-NASH activity in CCl4-induced nonalcoholic steatohepatitis C57BL mouse assessed as reduction in LDH level at 100 mg/kg checked in presence of vitamin E
Mus musculus [45] = assay: Anti-NASH activity in CCl4-induced nonalcoholic steatohepatitis C57BL mouse assessed as decrease in IL-17A expression at 30 mg/kg checked in presence of vitamin E by flow cytometry; conditions: time 14.0 day
Mus musculus [46] = assay: Anti-NASH activity in CCl4-induced nonalcoholic steatohepatitis C57BL mouse assessed as reduction in steatosis at 30 to 100 mg/kg checked in presence of vitamin E by H and E staining based assay; conditions: dose 30-100 mg/kg
Mus musculus [47] = assay: Anti-NASH activity in CCl4-induced nonalcoholic steatohepatitis C57BL mouse assessed as reduction in liver index at 30 to 100 mg/kg checked in presence of 60 mg/kg vitamin E; conditions: dose 30-100 mg/kg
Mus musculus [48] = assay: Anti-NASH activity in CCl4-induced nonalcoholic steatohepatitis C57BL mouse at 30 to 100 mg/kg checked in presence of vitamin E by Oil red-O staining based assay; conditions: dose 30-100 mg/kg
Mus musculus [49] = assay: Anti-NASH activity in CCl4-induced nonalcoholic steatohepatitis C57BL mouse assessed as reduction in malondialdehyde level at 30 mg/kg checked in presence of vitamin E
Mus musculus [50] = assay: Anti-NASH activity in CCl4-induced nonalcoholic steatohepatitis C57BL mouse assessed as reduction in serum ALT level at 30 to 100 mg/kg checked in presence of vitamin E; conditions: dose 30-100 mg/kg
Mus musculus [51] = assay: Anti-NASH activity in CCl4-induced nonalcoholic steatohepatitis C57BL mouse assessed as reduction in triglyceride level at 30 mg/kg checked in presence of vitamin E
Mus musculus [52] = assay: Anti-NASH activity in CCl4-induced nonalcoholic steatohepatitis C57BL mouse assessed as reduction in liver lobular inflammation at 30 to 100 mg/kg checked in presence of vitamin E by H and E staining based assay; conditions: dose 30-100 mg/kg
Mus musculus [53] = assay: Anti-NASH activity in CCl4-induced nonalcoholic steatohepatitis C57BL mouse assessed as reduction in serum AST level at 30 to 100 mg/kg checked in presence of vitamin E; conditions: dose 30-100 mg/kg
Mus musculus [54] = assay: Anti-NASH activity in CCl4-induced nonalcoholic steatohepatitis C57BL mouse assessed as reduction in liver ballooning degeneration at 30 to 100 mg/kg checked in presence of vitamin E by H and E staining based assay; conditions: dose 30-100 mg/kg
Mus musculus [55] = assay: Anti-NASH activity in CCl4-induced nonalcoholic steatohepatitis C57BL mouse assessed as decrease in IL-2 expression at 30 mg/kg checked in presence of vitamin E by flow cytometry; conditions: time 14.0 day

Measured: Activity

VITAMIN E
active: Mus musculus [1] | Mus musculus [2] | Mus musculus [3] | Mus musculus [4] | Mus musculus [5] | Mus musculus [6] | Mus musculus [7] | Mus musculus [8] | Mus musculus [9] | Mus musculus [10] | Mus musculus [11] | Mus musculus [12] | Mus musculus [13] | Mus musculus [14] | Mus musculus [15] | Mus musculus [16] | Mus musculus [17] | Mus musculus [18] | Mus musculus [19] | Mus musculus [20] | Mus musculus [21] | Mus musculus [22] | Mus musculus [23] | Mus musculus [24]

Cc1c(C)c2c(c(C)c1OC(=O)CCC(=O)O[C@@H]1C[C@H]3C(=O)N[C@@H](CO)C(=O)N3C1)CC[C@@](C)(CCC[C@H](C)CCC[C@H](C)CCCC(C)C)O2
active: Mus musculus [25] | Mus musculus [26] | Mus musculus [27] | Mus musculus [28] | Mus musculus [29] | Mus musculus [30] | Mus musculus [31] | Mus musculus [32] | Mus musculus [33] | Mus musculus [34] | Mus musculus [35] | Mus musculus [36] | Mus musculus [37] | Mus musculus [38] | Mus musculus [39] | Mus musculus [40]

O=C1N[C@@H](CO)C(=O)N2C[C@H](O)C[C@@H]12
active: Mus musculus [25] | Mus musculus [41] | Mus musculus [27] | Mus musculus [42] | Mus musculus [43] | Mus musculus [44] | Mus musculus [45] | Mus musculus [28] | Mus musculus [46] | Mus musculus [30] | Mus musculus [31] | Mus musculus [47] | Mus musculus [32] | Mus musculus [48] | Mus musculus [49] | Mus musculus [33] | Mus musculus [34] | Mus musculus [50] | Mus musculus [35] | Mus musculus [51] | Mus musculus [52] | Mus musculus [53] | Mus musculus [54] | Mus musculus [55]

— ChEMBL document CHEMBL5131407, “Design, synthesis and activity evaluation of prodrug form JBP485 and Vitamin E for alleviation of NASH” (Bioorg Med Chem Lett, 2022)
